Results from the supplement of paper PMC10307832.

Assays:
Assay in all cases: relative viability (nuclei count vs DMSO), 5 days (fraction); higher = more cells survive
[1] = tested on: NCI-H1944
How it was run: (§1)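 Lung cancer cell lines were seeded in 1536-well plates and dosed by pin tool the next day, with either a single drug or a fixed anchor-drug dose combined with five library-drug doses (not always all listed) spaced in √10 steps. Five days later, one step fixed the cells and stained their nuclei (final 0.05% Triton X-100, 1% formaldehyde, 1 ug/ml Hoechst), and nuclei were counted on 4× images. Relative viability is the nuclei count in treated wells divided by the count in vehicle wells, and each value is the median of duplicate plates.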

[2] = tested on: NCI-H2170
How it was run: as §1

[3] = tested on: NCI-H1666
How it was run: as §1

[4] = tested on: LK-2
How it was run: as §1

[5] = tested on: NCI-H23
How it was run: as §1

[6] = tested on: NCI-H1792
How it was run: as §1

[7] = tested on: NCI-H1975
How it was run: as §1

[8] = tested on: COR-L 105
How it was run: as §1

[9] = tested on: SW 900
How it was run: as §1

[10] = tested on: NCI-H1734
How it was run: as §1

[11] = tested on: PC-3 [JPC-3]
How it was run: as §1

[12] = tested on: SK-MES-1
How it was run: as §1

[13] = tested on: A-427
How it was run: as §1

[14] = tested on: EKVX
How it was run: as §1

[15] = tested on: HCC-366
How it was run: as §1

[16] = tested on: ChaGo-K-1
How it was run: as §1

[17] = tested on: NCI-H520
How it was run: as §1

[18] = tested on: NCI-H1755
How it was run: as §1

[19] = tested on: NCI-H441
How it was run: as §1

[20] = tested on: EMC-BAC-2
How it was run: as §1

[21] = tested on: H3255
How it was run: as §1

[22] = tested on: LOU-NH91
How it was run: as §1

Q: What does the source list for `Clc1ccc(Nc2nnc(Cc3ccncc3)c3ccccc23)cc1` [Vatalanib] + CC(=O)c1c(C)c2cnc(Nc3ccc(N4CCNCC4)cn3)nc2n(C2CCCC2)c1=O [Palbociclib] (partner 0.5 µM)?
A: relative viability ([1]; first compound 0.04 µM): 0.324; relative viability ([1]; first compound 0.1265 µM): 0.301; relative viability ([1]; first compound 0.4 µM): 0.364; relative viability ([1]; first compound 1.265 µM): 0.29; relative viability ([1]; first compound 4 µM): 0.319; relative viability ([2]; first compound 0.04 µM): 0.415; relative viability ([2]; first compound 0.1265 µM): 0.443; relative viability ([2]; first compound 0.4 µM): 0.35; relative viability ([2]; first compound 1.265 µM): 0.376; relative viability ([2]; first compound 4 µM): 0.384; relative viability ([3]; first compound 0.04 µM): 0.646; relative viability ([3]; first compound 0.1265 µM): 0.624; relative viability ([3]; first compound 0.4 µM): 0.643; relative viability ([3]; first compound 1.265 µM): 0.616; relative viability ([3]; first compound 4 µM): 0.667; relative viability ([4]; first compound 0.04 µM): 0.41; relative viability ([4]; first compound 0.1265 µM): 0.694; relative viability ([4]; first compound 0.4 µM): 0.796; relative viability ([4]; first compound 1.265 µM): 0.762; relative viability ([4]; first compound 4 µM): 0.748; relative viability ([5]; first compound 0.04 µM): 0.469; relative viability ([5]; first compound 0.1265 µM): 0.435; relative viability ([5]; first compound 0.4 µM): 0.533; relative viability ([5]; first compound 1.265 µM): 0.473; relative viability ([5]; first compound 4 µM): 0.468; relative viability ([6]; first compound 0.04 µM): 0.613; relative viability ([6]; first compound 0.1265 µM): 0.543; relative viability ([6]; first compound 0.4 µM): 0.637; relative viability ([6]; first compound 1.265 µM): 0.738; relative viability ([6]; first compound 4 µM): 0.687; relative viability ([7]; first compound 0.04 µM): 0.651; relative viability ([7]; first compound 0.1265 µM): 0.5; relative viability ([7]; first compound 0.4 µM): 0.768; relative viability ([7]; first compound 1.265 µM): 0.528; relative viability ([7]; first compound 4 µM): 0.489; relative viability ([8]; first compound 0.04 µM): 0.404; relative viability ([8]; first compound 0.1265 µM): 0.369; relative viability ([8]; first compound 0.4 µM): 0.402; relative viability ([8]; first compound 1.265 µM): 0.441; relative viability ([8]; first compound 4 µM): 0.396; relative viability ([9]; first compound 0.04 µM): 0.504; relative viability ([9]; first compound 0.1265 µM): 0.523; relative viability ([9]; first compound 0.4 µM): 0.534; relative viability ([9]; first compound 1.265 µM): 0.614; relative viability ([9]; first compound 4 µM): 0.547; relative viability ([10]; first compound 0.04 µM): 0.338; relative viability ([10]; first compound 0.1265 µM): 0.314; relative viability ([10]; first compound 0.4 µM): 0.396; relative viability ([10]; first compound 1.265 µM): 0.33; relative viability ([10]; first compound 4 µM): 0.336; relative viability ([11]; first compound 0.04 µM): 0.515; relative viability ([11]; first compound 0.1265 µM): 0.549; relative viability ([11]; first compound 0.4 µM): 0.573; relative viability ([11]; first compound 1.265 µM): 0.538; relative viability ([11]; first compound 4 µM): 0.544; relative viability ([12]; first compound 0.04 µM): 0.339; relative viability ([12]; first compound 0.1265 µM): 0.309; relative viability ([12]; first compound 0.4 µM): 0.347; relative viability ([12]; first compound 1.265 µM): 0.309; relative viability ([12]; first compound 4 µM): 0.305; relative viability ([13]; first compound 0.04 µM): 0.568; relative viability ([13]; first compound 0.1265 µM): 0.482; relative viability ([13]; first compound 0.4 µM): 0.546; relative viability ([13]; first compound 4 µM): 0.508; relative viability ([14]; first compound 0.04 µM): 0.366; relative viability ([14]; first compound 0.1265 µM): 0.369; relative viability ([14]; first compound 0.4 µM): 0.343; relative viability ([14]; first compound 1.265 µM): 0.375; relative viability ([14]; first compound 4 µM): 0.334; relative viability ([15]; first compound 0.04 µM): 0.462; relative viability ([15]; first compound 0.1265 µM): 0.348; relative viability ([15]; first compound 0.4 µM): 0.457; relative viability ([15]; first compound 1.265 µM): 0.391; relative viability ([15]; first compound 4 µM): 0.355; relative viability ([16]; first compound 0.04 µM): 0.998; relative viability ([16]; first compound 0.1265 µM): 0.885; relative viability ([16]; first compound 0.4 µM): 0.945; relative viability ([16]; first compound 1.265 µM): 0.969; relative viability ([16]; first compound 4 µM): 0.961; relative viability ([17]; first compound 0.04 µM): 0.214; relative viability ([17]; first compound 0.1265 µM): 0.242; relative viability ([17]; first compound 0.4 µM): 0.255; relative viability ([17]; first compound 1.265 µM): 0.199; relative viability ([17]; first compound 4 µM): 0.19; relative viability ([18]; first compound 0.04 µM): 0.473; relative viability ([18]; first compound 0.1265 µM): 0.474; relative viability ([18]; first compound 0.4 µM): 0.457; relative viability ([18]; first compound 1.265 µM): 0.445; relative viability ([18]; first compound 4 µM): 0.425; relative viability ([19]; first compound 0.04 µM): 0.223; relative viability ([19]; first compound 0.1265 µM): 0.194; relative viability ([19]; first compound 0.4 µM): 0.253; relative viability ([19]; first compound 1.265 µM): 0.194; relative viability ([19]; first compound 4 µM): 0.223; relative viability ([20]; first compound 0.04 µM): 0.545; relative viability ([20]; first compound 0.1265 µM): 0.524; relative viability ([20]; first compound 0.4 µM): 0.563; relative viability ([20]; first compound 4 µM): 0.512; relative viability ([21]; first compound 0.04 µM): 0.308; relative viability ([21]; first compound 0.1265 µM): 0.273; relative viability ([21]; first compound 0.4 µM): 0.325; relative viability ([21]; first compound 1.265 µM): 0.296; relative viability ([21]; first compound 4 µM): 0.309; relative viability ([22]; first compound 0.04 µM): 0.549; relative viability ([22]; first compound 0.1265 µM): 0.483; relative viability ([22]; first compound 0.4 µM): 0.542; relative viability ([22]; first compound 1.265 µM): 0.457; relative viability ([22]; first compound 4 µM): 0.55
